Results reported in US4401660A, “Ester derivatives of 5-O-mycaminosyl tylonolide and method of using same” (Eli Lilly and Company, priority 1981, dated 1983).

Experiments:
Format in all cases: cell-based
Set-up in all cases: unit not given here
[1] = system: Haemophilus influenzae Holt; assay: MIC, standard agar-dilution assay (Table II); conditions: ampicillin-sensitive strain
Experimental: (§1) The MIC's in Table II were determined by standard agar-dilution assays. The MIC's in Table III were obtained using a conventional broth-dilution microtiter test.

[2] = system: Haemophilus influenzae R252; assay: MIC, standard agar-dilution assay (Table II); conditions: Haemophilus influenzae R252, ampicillin-resistant strain
Experimental: as §1

[3] = system: Staphylococcus aureus S13E; assay: MIC, standard agar-dilution assay (Table II)
Experimental: as §1

[4] = system: Staphylococcus aureus V41; assay: MIC, standard agar-dilution assay (Table II); conditions: Staphylococcus aureus V41, penicillin-resistant strain
Experimental: as §1

[5] = system: Staphylococcus aureus X1.1; assay: MIC, standard agar-dilution assay (Table II)
Experimental: as §1

[6] = system: Staphylococcus aureus X400; assay: MIC, standard agar-dilution assay (Table II); conditions: Staphylococcus aureus X400, methicillin-resistant strain
Experimental: as §1

[7] = system: Staphylococcus epidermidis EPI1; assay: MIC, standard agar-dilution assay (Table II)
Experimental: as §1

[8] = system: Staphylococcus epidermidis EPI2; assay: MIC, standard agar-dilution assay (Table II)
Experimental: as §1

[9] = system: Streptococcus Group D 9960; assay: MIC, standard agar-dilution assay (Table II)
Experimental: as §1

[10] = system: Streptococcus Group D X66; assay: MIC, standard agar-dilution assay (Table II)
Experimental: as §1

[11] = system: Streptococcus pneumoniae Park I; assay: MIC, standard agar-dilution assay (Table II)
Experimental: as §1

[12] = system: Streptococcus pyogenes C203; assay: MIC, standard agar-dilution assay (Table II)
Experimental: as §1

[13] = system: Mycoplasma gallisepticum; assay: MIC, broth-dilution microtiter test (Table III)
Experimental: as §1

[14] = system: Mycoplasma hyorhinis; assay: MIC, broth-dilution microtiter test (Table III)
Experimental: as §1

[15] = system: Mycoplasma synoviae; assay: MIC, broth-dilution microtiter test (Table III)
Experimental: as §1

[16] = system: Pasteurella haemolytica 22C; assay: MIC, broth-dilution microtiter test (Table III)
Experimental: as §1

[17] = system: Pasteurella haemolytica 23C; assay: MIC, broth-dilution microtiter test (Table III)
Experimental: as §1

[18] = system: Pasteurella haemolytica 41D; assay: MIC, broth-dilution microtiter test (Table III)
Experimental: as §1

[19] = system: Pasteurella multocida 17E; assay: MIC, broth-dilution microtiter test (Table III); conditions: bovine isolate
Experimental: as §1

[20] = system: Pasteurella multocida 22A; assay: MIC, broth-dilution microtiter test (Table III)
Experimental: as §1

[21] = system: Pasteurella multocida 40G; assay: MIC, broth-dilution microtiter test (Table III)
Experimental: as §1

[22] = system: Pasteurella multocida 60A; assay: MIC, broth-dilution microtiter test (Table III); conditions: avian isolate
Experimental: as §1

[23] = system: Pasteurella multocida 68C; assay: MIC, broth-dilution microtiter test (Table III)
Experimental: as §1

[24] = system: Staphylococcus aureus; assay: MIC, broth-dilution microtiter test (Table III)
Experimental: as §1

[25] = system: Streptococcus sp. 80; assay: MIC, broth-dilution microtiter test (Table III)
Experimental: as §1

CCC1OC(=O)CC(O)C(C)C(OC2OC(C)C(OC(=O)c3ccccc3)C(N(C)C)C2OC(=O)c2ccccc2)C(CC=O)CC(C)C(=O)C=CC(C)=CC1CO (stereo not drawn) [Compound 5, 2',4'-Di-O-benzoyl-OMT]
minimal inhibitory concentration (MIC) [1]: 64 | minimal inhibitory concentration (MIC) [2]: 64 | minimal inhibitory concentration (MIC) [3]: 32 | minimal inhibitory concentration (MIC) [4]: 32 | minimal inhibitory concentration (MIC) [5]: 8 | minimal inhibitory concentration (MIC) [6]: 64 | minimal inhibitory concentration (MIC) [7]: 8 | minimal inhibitory concentration (MIC) [8]: 4 | minimal inhibitory concentration (MIC) [9]: 8 | minimal inhibitory concentration (MIC) [10]: 8 | minimal inhibitory concentration (MIC) [11]: 0.5 | minimal inhibitory concentration (MIC) [12]: 2 | minimal inhibitory concentration (MIC) [13]: 12.5 | minimal inhibitory concentration (MIC) [14]: 50 | minimal inhibitory concentration (MIC) [15]: 12.5 | minimal inhibitory concentration (MIC) [16]: > 50 | minimal inhibitory concentration (MIC) [17]: > 50 | minimal inhibitory concentration (MIC) [18]: > 50 | minimal inhibitory concentration (MIC) [19]: 50 | minimal inhibitory concentration (MIC) [20]: > 50 | minimal inhibitory concentration (MIC) [21]: 50 | minimal inhibitory concentration (MIC) [22]: 50 | minimal inhibitory concentration (MIC) [23]: 25 | minimal inhibitory concentration (MIC) [24]: 6.25 | minimal inhibitory concentration (MIC) [25]: 3.12

CCC1OC(=O)CC(O)C(C)C(OC2OC(C)C(O)C(N(C)C)C2O)C(CC=O)CC(C)C(=O)C=CC(C)=CC1COC(=O)c1ccc2ccccc2c1 (stereo not drawn) [Compound 59]
minimal inhibitory concentration (MIC) [1]: 4 | minimal inhibitory concentration (MIC) [2]: 2 | minimal inhibitory concentration (MIC) [3]: 0.5 | minimal inhibitory concentration (MIC) [4]: 0.5 | minimal inhibitory concentration (MIC) [5]: 0.5 | minimal inhibitory concentration (MIC) [6]: 0.5 | minimal inhibitory concentration (MIC) [7]: 0.5 | minimal inhibitory concentration (MIC) [8]: 0.5 | minimal inhibitory concentration (MIC) [9]: 0.5 | minimal inhibitory concentration (MIC) [10]: 0.5 | minimal inhibitory concentration (MIC) [11]: 0.125 | minimal inhibitory concentration (MIC) [12]: 0.5 | minimal inhibitory concentration (MIC) [13]: 0.39 | minimal inhibitory concentration (MIC) [14]: 6.25 | minimal inhibitory concentration (MIC) [15]: 1.56 | minimal inhibitory concentration (MIC) [16]: 12.5 | minimal inhibitory concentration (MIC) [17]: 12.5 | minimal inhibitory concentration (MIC) [18]: 12.5 | minimal inhibitory concentration (MIC) [19]: 3.12 | minimal inhibitory concentration (MIC) [20]: 12.5 | minimal inhibitory concentration (MIC) [21]: 3.12 | minimal inhibitory concentration (MIC) [22]: 3.12 | minimal inhibitory concentration (MIC) [23]: 3.12 | minimal inhibitory concentration (MIC) [24]: 0.78 | minimal inhibitory concentration (MIC) [25]: 0.39

CCC1OC(=O)CC(O)C(C)C(OC2OC(C)C(O)C(N(C)C)C2OC(C)=O)C(CC=O)CC(C)C(=O)C=CC(C)=CC1COC(=O)C(Cl)(Cl)Cl (stereo not drawn) [Compound 77]
minimal inhibitory concentration (MIC) [2]: 1 | minimal inhibitory concentration (MIC) [3]: 1 | minimal inhibitory concentration (MIC) [4]: 2 | minimal inhibitory concentration (MIC) [5]: 1 | minimal inhibitory concentration (MIC) [6]: 2 | minimal inhibitory concentration (MIC) [7]: 1 | minimal inhibitory concentration (MIC) [8]: 2 | minimal inhibitory concentration (MIC) [9]: 1 | minimal inhibitory concentration (MIC) [10]: 1 | minimal inhibitory concentration (MIC) [11]: 0.25 | minimal inhibitory concentration (MIC) [12]: 0.25 | minimal inhibitory concentration (MIC) [13]: 0.78 | minimal inhibitory concentration (MIC) [14]: 3.12 | minimal inhibitory concentration (MIC) [15]: 0.78 | minimal inhibitory concentration (MIC) [16]: 12.5 | minimal inhibitory concentration (MIC) [17]: 12.5 | minimal inhibitory concentration (MIC) [18]: 12.5 | minimal inhibitory concentration (MIC) [19]: 3.12 | minimal inhibitory concentration (MIC) [20]: 50 | minimal inhibitory concentration (MIC) [21]: 25 | minimal inhibitory concentration (MIC) [22]: 3.12 | minimal inhibitory concentration (MIC) [23]: 25 | minimal inhibitory concentration (MIC) [24]: 1.56 | minimal inhibitory concentration (MIC) [25]: 0.78

CCC1OC(=O)CC(O)C(C)C(OC2OC(C)C(OC(=O)CC(C)C)C(N(C)C)C2OC(C)=O)C(CC=O)CC(C)C(=O)C=CC(C)=CC1COC(=O)CC(C)C (stereo not drawn) [Compound 50, 2'-O-Acetyl-4',23-di-O-isovaleryl-OMT]
minimal inhibitory concentration (MIC) [3]: 1 | minimal inhibitory concentration (MIC) [4]: 2 | minimal inhibitory concentration (MIC) [5]: 1 | minimal inhibitory concentration (MIC) [6]: 2 | minimal inhibitory concentration (MIC) [7]: 1 | minimal inhibitory concentration (MIC) [8]: 1 | minimal inhibitory concentration (MIC) [9]: 1 | minimal inhibitory concentration (MIC) [10]: 1 | minimal inhibitory concentration (MIC) [11]: 0.5 | minimal inhibitory concentration (MIC) [12]: 1 | minimal inhibitory concentration (MIC) [13]: 0.195 | minimal inhibitory concentration (MIC) [14]: 6.25 | minimal inhibitory concentration (MIC) [15]: 1.56 | minimal inhibitory concentration (MIC) [16]: 25 | minimal inhibitory concentration (MIC) [17]: 25 | minimal inhibitory concentration (MIC) [18]: 25 | minimal inhibitory concentration (MIC) [19]: 12.5 | minimal inhibitory concentration (MIC) [20]: 25 | minimal inhibitory concentration (MIC) [21]: 3.12 | minimal inhibitory concentration (MIC) [22]: 6.25 | minimal inhibitory concentration (MIC) [23]: 6.25 | minimal inhibitory concentration (MIC) [24]: 0.39 | minimal inhibitory concentration (MIC) [25]: 0.39

CCC1OC(=O)CC(O)C(C)C(OC2OC(C)C(OC(=O)CC(C)C)C(N(C)C)C2OC(C)=O)C(CC=O)CC(C)C(=O)C=CC(C)=CC1COC(C)=O (stereo not drawn) [Compound 51, 2',23-Di-O-Acetyl-4'-O-isovaleryl-OMT]
minimal inhibitory concentration (MIC) [3]: 0.5 | minimal inhibitory concentration (MIC) [4]: 1 | minimal inhibitory concentration (MIC) [5]: 1 | minimal inhibitory concentration (MIC) [6]: 1 | minimal inhibitory concentration (MIC) [7]: 0.5 | minimal inhibitory concentration (MIC) [8]: 1 | minimal inhibitory concentration (MIC) [9]: 1 | minimal inhibitory concentration (MIC) [10]: 1 | minimal inhibitory concentration (MIC) [11]: 0.125 | minimal inhibitory concentration (MIC) [12]: 0.25 | minimal inhibitory concentration (MIC) [13]: < 0.05 | minimal inhibitory concentration (MIC) [14]: 6.25 | minimal inhibitory concentration (MIC) [15]: 0.78 | minimal inhibitory concentration (MIC) [16]: 3.12 | minimal inhibitory concentration (MIC) [17]: 3.12 | minimal inhibitory concentration (MIC) [18]: 3.12 | minimal inhibitory concentration (MIC) [19]: 3.12 | minimal inhibitory concentration (MIC) [20]: 6.25 | minimal inhibitory concentration (MIC) [21]: 3.12 | minimal inhibitory concentration (MIC) [22]: 3.12 | minimal inhibitory concentration (MIC) [23]: 3.12 | minimal inhibitory concentration (MIC) [24]: 0.78 | minimal inhibitory concentration (MIC) [25]: 0.78
